Read-outs that look alike come from different tables or passages of the source.
Tests used:
[1] = target: T1, RORγ ligand-binding domain (Homo sapiens, UniProt P51449); assay: RORγ Reporter Assay (Gal4); assay type: cell-based
T1 construct: Gal4 (galactose-responsive transcription factor); expressed in transfected cells; host or cells: HEK293, transient co-transfection
T1 sequence (P51449 269-508 limits assumed): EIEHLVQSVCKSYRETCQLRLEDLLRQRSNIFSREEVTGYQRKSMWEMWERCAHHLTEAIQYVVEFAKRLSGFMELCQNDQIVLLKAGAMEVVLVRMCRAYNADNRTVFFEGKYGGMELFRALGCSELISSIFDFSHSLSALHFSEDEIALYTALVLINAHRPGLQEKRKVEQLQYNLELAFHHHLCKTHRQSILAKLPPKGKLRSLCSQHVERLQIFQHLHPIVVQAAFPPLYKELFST
How it was run: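 HEK293 cells transiently co-transfected with Gal4–RORγ LBD fusion and UAS-luciferase reporter, plated 2 h, then exposed to compound (0.1% DMSO final) for 24 h at 37 °C. Luminescence read; percent reduction vs vehicle fitted to dose-response curves.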

[2] = test system: plasma IL-17A; assay: In vivo IL-17A induction in anti-CD3 model in mice; settings: oral gavage twice daily day 0 to day 3, anti-CD3e induced C57BL/6JRj mice
Protocol: Male C57BL/6JRj mice (7 week old) were purchased from Janvier Labs and housed at the animal facilities of Almirall throughout the study. Animals were allowed to condition for 5 days in their new environment at 22° C.±2° C., 55%±10% relative humidity and 12 h:12 h light:dark cycles. Animals were housed in polycarbonate cages, with free access to water and non-purified stock diet (2014 Teklad Global 14% Protein Rodent Maintenance Diet, Envigo) during the full course of the studies. Care of animals was undertaken in compliance with the European Committee Directive 2010/63/EU, and the Catalan and Spanish law. […]
Plasma levels of IL-17A were measured by ELISA (R&D Systems) according to the manufacturer's instruction. Results were calculated as the percentage of reduction of plasma IL-17A versus the difference between non-induced and anti-CD3e induced groups through the formula: inhibition=100*[1−[(x−mean non-induced)/(mean control vehicle−mean non-induced)]]. The IL-17A inhibition for each treatment can be expressed as the mean for each treatment group±S.E.M. Statistical analysis of data were conducted with one-way ANOVA followed by Dunnett's multiple comparisons test when appropriate. […]

[3] = test system: IL-17A secretion in activated PBMCs; assay: IL-17A secretion in activated PBMCs; assay type: cell-based; settings: human PBMCs stimulated with CD3/CD28 Dynabeads for 48 h, absolute IC50
Source text: Heparin-treated whole blood from healthy human volunteers was supplied from Hospital de Sant Pau (Barcelona) under the approval of the local ethical review board for human studies (Hospital de Sant Pau, Barcelona, Spain). Human peripheral blood mononuclear cells (PBMCs) were isolated from healthy human volunteers by density gradient centrifugation using the Ficoll-Paque (GE Healthcare). PBMCs were suspended in cell culture medium which consisted on RPMI 1640 medium (Sigma-Aldrich) containing 10% heat inactivated fetal bovine serum (Sigma-Aldrich), 2 mM L-Glutamine (Gibco), 20 mM Hepes (Gibco) and 100 U/mL penicillin (Sigma-Aldrich). Cells were seeded in 384-well plate (DiscoverX), at 40,000 cells per well and cultured 2 h at 37° C. and 5% CO2.
Dose-response curves with compounds were prepared using a 5-fold serial dilution (10 concentrations) in 100% DMSO and further diluted 100-fold in culture medium. Compound solutions (5 μL) were added to the plate containing cells (final DMSO concentration of 0.1%) and incubated for 30 min. Then, cells were stimulated with CD3/CD28 Dynabeads (ThermoFisher, at a bead-to-cell ratio of 1:1) for 48 h at 37° C. and 5% CO2.
IL-17A levels in supernatant were determined by immunoassay using hIL17A QBeads (Intellicyt) and by fluorescence analysis in iQue flow cytometer following the manufacturer's instructions. Inhibition of IL-17A secretion was calculated using the following formula: inhibition=100*[1−[(x−mean basal condition)/(mean top condition—mean basal condition)]]. Activated DMSO-treated cells were used as top condition and activated GNE09461 (10 μM)-treated cells as basal condition.

[4] = test system: Th17 cells; assay: Th17 Assay (IL-17 levels in supernatants of differentiated Th17 cells); assay type: cell-based; settings: Homo sapiens, 168 h; naive CD4+ T cells differentiated to Th17 for seven days, IL-17 by ELISA
Protocol: Human peripheral blood mononuclear cells (PBMCs) were isolated from buffy coats of healthy human volunteers using the Ficoll paque PLUS kit (GE Healthcare, cat no 17-1440-02), as instructed by the manufacturer. Naive CD4+ T cells were isolated with Naive CD4+ T cell kit, human (Milteny Biotec, cat no 130-094-131). The following modifications were made to the manufacturer's protocol: 1) Incubation with Biotin-Antibody Cocktail and Anti-Biotin MicroBeads was prolonged to 30 minutes, and 2) Cells were washed with 40 mL of Miltenyi buffer. Differentiation of Th17 cells in anti-CD3 (BD Pharmingen, 5 μg/ml) coated 96-well plates (400,000 cells/well, 160 μl RPMI 1640+10% Fetal Bovine Serum) containing 5 μg/ml anti-CD28 (BD Pharmingen), 10 ng/ml IL-2 (R&D Systems), 2.5 ng/ml TGFβ-1 (R&D Systems), 20 ng/ml IL-10 (R&D Systems), 20 ng/ml IL-6 (R&D Systems), 30 ng/ml IL-23 (R&D Systems), 2.5 μg/ml anti-IL-4 (R&D Systems) and 1 μg/ml anti-IFNγ (R&D Systems) and with test compound during the entire differentiation (or vehicle, 0.1% DMSO for control). Test compounds were tested in triplicates, diluted 1000-fold in medium (final DMSO concentration is 0.1%). […] IL-17 levels in supernatants were measured with ELISA (R&D Systems).

[5] = HEK293 cells, luciferase reporter, 24 h incubation, absolute IC50, read-out: IC50

| IC50 [1, 5] [nM] | IC50 ([1]; stated as a bound only (Tables 5 a, 6, 7), read-out: Gal4 assay IC50) [nM] | IC50 [4] [nM] | SMILES | Inhibition of IL-17A (%) at 3 mg/kg [2] [%] | IC50 ([3]; Homo sapiens, PBMC, 48 h) [nM] | IC50 [3] [nM] |
| --- | --- | --- | --- | --- | --- | --- |
| 2.2 | < 100 | – | NC(=O)CN1CC[C@](O)(Cn2ccc3c(N(Cc4ccc(C(F)(F)F)cc4)C4CC4)ncnc32)[C@@H](O)C1 (single isomer, unassigned) [Example L5-1-1-1] | 94 | 3.6 | – |
| 30 | – | 124 | NC(=O)CN1CCC(Cn2ccc3c(N4CCOCC4c4ccc(C(F)(F)F)cc4)ncnc32)CC1 (single isomer, unassigned) [Example P6-02-2] | – | – | – |
| 4.9 | – | – | NC(=O)CN1CC[C@](O)(Cn2ccc3c(N(Cc4ccc(-n5cccn5)cc4)C4CC4)ncnc32)[C@@H](O)C1 (single isomer, unassigned) [Example R5-2-1] | – | – | 29 |
| 6.5 | – | – | NC(=O)CN1CC[C@](O)(Cn2ccc3c(N(Cc4ccc(-n5cccn5)cc4)C4CC4)ncnc32)[C@@H](O)C1 (single isomer, unassigned) [Example R5-2-2] | – | – | 7.4 |
| 6.9 | – | – | NC(=O)CN1CCC(O)(Cn2cc(F)c3c(N(Cc4ccc(C(F)(F)F)cc4)C4CC4)ncnc32)CC1 [Example 3P6-1, 2-(4-((4-(Cyclopropyl(4-(trifluoromethyl)benzyl)amino)-5-fluoro-7H-pyrrolo[2,3-d]pyrimidin-7-yl)methyl)-4-hydroxypiperidin-1-yl)acetamide] | – | 21 | – |
| 4.2 | – | – | NC(=O)CN1CCC(O)(Cn2ccc3c(N(Cc4ccc(C(F)(F)F)cc4)C4CC4)ncnc32)CC1 [Example 3P6-2, 2-(4-((4-(cyclopropyl(4-(trifluoromethyl)benzyl)amino)-7H-pyrrolo-[2,3-d]pyrimidin-7-yl)methyl)-4-hydroxypiperidin-1-yl)acetamide] | – | 2.2 | – |
| 62 | – | – | NC(=O)CN1CCC(Cn2cc(F)c3c(N(Cc4ccc(C(F)(F)F)cc4)C4CC4)ncnc32)CC1 [Example P6-05, 2-(4-((4-(cyclopropyl(4-(trifluoromethyl)benzyl)amino)-5-fluoro-7H-pyrrolo[2,3-d]pyrimidin-7-yl)methyl)piperidin-1-yl)acetamide] | – | 20 | – |
| 85 | – | – | NC(=O)CN1CCC(Cn2cnc3c(N(Cc4ccc(C(F)(F)F)cc4)C4CC4)ncnc32)CC1 [Example P6-06, 2-(4-((6-(cyclopropyl(4-(trifluoromethyl)benzyl)amino)-9H-purin-9-yl)methyl)piperidin-1-yl)acetamide] | – | 48 | – |
| 16 | – | – | N#CC1(Cn2cc(F)c3c(N(Cc4ccc(C(F)(F)F)cc4)C4CC4)ncnc32)CCN(CC(N)=O)CC1 [Example P6-11, 2-(4-cyano-4-((4-(cyclopropyl(4-(trifluoromethyl)benzyl)amino)-5-fluoro-7H-pyrrolo[2,3-d]pyrimidin-7-yl)methyl)piperidin-1-yl)acetamide] | – | 23 | – |

From patent US11780843B2, “Compounds active towards nuclear receptors” (NUEVOLUTION A/S, priority 2020, dated 2023)
